Experiments:
Assay in all cases: relative viability (nuclei count vs DMSO), 5 days (fraction); higher = more cells survive
Apatinib + Palbociclib = compound: N#CC1(c2ccc(NC(=O)c3cccnc3NCc3ccncc3)cc2)CCCC1 [Apatinib] + CC(=O)c1c(C)c2cnc(Nc3ccc(N4CCNCC4)cn3)nc2n(C2CCCC2)c1=O [Palbociclib] (partner 0.5 µM)
Procedure, shortened: (§1)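 Cells from lung cancer lines were seeded into 1536-well plates and, one day later, dosed by pin tool. Treatments were either a single drug or a fixed dose of an anchor drug with five library-drug doses (not always all listed) in √10 steps. After 5 days, nuclei were stained in a one-step fixation (final 0.05% Triton X-100, 1% formaldehyde, 1 ug/ml Hoechst) and counted on 4× images, and relative viability is the treated-to-vehicle nuclei ratio, as the median of duplicate plates.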

Metformin + Palbociclib = compound: CN(C)C(=N)NC(=N)N [Metformin] + CC(=O)c1c(C)c2cnc(Nc3ccc(N4CCNCC4)cn3)nc2n(C2CCCC2)c1=O [Palbociclib] (partner 0.5 µM)
Procedure, shortened: as §1

Metformin + Luminespib = compound: CN(C)C(=N)NC(=N)N [Metformin] + CCNC(=O)c1noc(-c2cc(C(C)C)c(O)cc2O)c1-c1ccc(CN2CCOCC2)cc1 [Luminespib] (partner 0.01 µM)
Procedure, shortened: as §1

Metformin + AZD7762 = compound: CN(C)C(=N)NC(=N)N [Metformin] + NC(=O)Nc1cc(-c2cccc(F)c2)sc1C(=O)N[C@H]1CCCNC1 [AZD7762] (partner 0.2 µM)
Procedure, shortened: as §1

| Cell Line | relative viability (Apatinib + Palbociclib; first compound 0.08 µM) | relative viability (Apatinib + Palbociclib; first compound 0.253 µM) | relative viability (Apatinib + Palbociclib; first compound 0.8 µM) | relative viability (Apatinib + Palbociclib; first compound 2.53 µM) | relative viability (Apatinib + Palbociclib; first compound 8 µM) | relative viability (Metformin + Palbociclib; first compound 10 µM) | relative viability (Metformin + Palbociclib; first compound 31.62 µM) | relative viability (Metformin + Palbociclib; first compound 100 µM) | relative viability (Metformin + Palbociclib; first compound 316.23 µM) | relative viability (Metformin + Palbociclib; first compound 1000 µM) | relative viability (Metformin + Luminespib; first compound 10 µM) | relative viability (Metformin + Luminespib; first compound 31.62 µM) | relative viability (Metformin + Luminespib; first compound 100 µM) | relative viability (Metformin + Luminespib; first compound 316.23 µM) | relative viability (Metformin + Luminespib; first compound 1000 µM) | relative viability (Metformin + AZD7762; first compound 10 µM) | relative viability (Metformin + AZD7762; first compound 31.62 µM) | relative viability (Metformin + AZD7762; first compound 100 µM) | relative viability (Metformin + AZD7762; first compound 316.23 µM) | relative viability (Metformin + AZD7762; first compound 1000 µM) |
| --- | --- | --- | --- | --- | --- | --- | --- | --- | --- | --- | --- | --- | --- | --- | --- | --- | --- | --- | --- | --- |
| NCI-H2228 | 0.668 | 0.788 | 0.776 | 0.708 | 0.667 | 0.626 | 0.782 | 0.747 | 0.526 | 0.946 | 0.133 | 0.185 | 0.157 | 0.165 | 0.209 |  |  |  |  |  |
| NCI-H520 | 0.227 | 0.238 | 0.25 | 0.197 | 0.214 | 0.271 | 0.269 | 0.277 | 0.22 | 0.269 | 0.265 | 0.224 | 0.211 | 0.223 | 0.23 |  |  |  |  |  |
| HCC-366 | 0.484 | 0.378 | 0.373 | 0.334 | 0.306 | 0.342 | 0.376 | 0.309 | 0.31 | 0.334 |  |  |  |  |  | 0.233 | 0.299 | 0.362 | 0.265 | 0.371 |
| SK-MES-1 | 0.335 | 0.323 | 0.282 | 0.292 | 0.278 | 0.248 | 0.205 | 0.266 | 0.204 | 0.232 | 0.83 | 0.889 | 0.95 | 0.747 | 0.744 |  |  |  |  |  |
| NCI-H661 | 0.388 | 0.405 | 0.417 | 0.417 | 0.356 | 0.382 | 0.391 | 0.371 | 0.37 | 0.365 | 0.844 | 0.837 | 0.876 | 0.807 | 0.354 |  |  |  |  |  |
| NCI-H1563 |  |  |  |  |  |  |  |  |  |  | 0.588 | 0.629 | 0.577 | 0.407 | 0.584 |  |  |  |  |  |
| NCI-H1623 |  |  |  |  |  |  |  |  |  |  | 0.475 | 0.429 | 0.596 | 0.487 | 0.755 |  |  |  |  |  |
| NCI-H1648 | 0.273 | 0.218 | 0.328 | 0.273 | 0.274 |  | 0.299 | 0.296 | 0.294 | 0.294 |  |  |  |  |  |  | 0.575 | 0.681 | 0.574 | 0.663 |
| UMC-11 | 0.322 | 0.326 | 0.278 | 0.31 | 0.323 | 0.336 | 0.349 | 0.333 | 0.311 | 0.341 | 1.1 | 1.14 | 1.08 | 1.1 | 0.994 |  |  |  |  |  |
| SK-LU-1 | 0.372 | 0.402 | 0.433 | 0.381 | 0.339 | 0.358 | 0.388 | 0.365 | 0.358 | 0.367 | 0.204 | 0.204 | 0.221 | 0.204 | 0.244 |  |  |  |  |  |
| SW 1573 | 0.4 | 0.518 | 0.433 | 0.379 | 0.252 | 0.378 | 0.364 | 0.321 | 0.252 | 0.264 | 0.266 | 0.255 | 0.51 | 0.157 | 0.153 |  |  |  |  |  |
| NCI-H2009 | 0.423 | 0.206 | 0.227 | 0.203 | 0.167 | 0.194 | 0.321 | 0.228 | 0.122 | 0.202 | 1.07 | 1.09 | 1.08 | 1.02 | 0.93 |  |  |  |  |  |

— the supplement of paper PMC10307832
